The data set in a line: solubility compared with docetaxel trihydrate. The data set is classed as physicochemical. Conditions: relative to docetaxel trihydrate; statement in words, no method or figures given.

With `CC(=O)O[C@@]12CO[C@@H]1C[C@H](O)[C@@]1(C)C(=O)[C@H](O)C3=C(C)[C@@H](OC(=O)[C@H](O)[C@@H](NC(=O)OC(C)(C)C)c4ccccc4)C[C@@](O)([C@@H](OC(=O)c4ccccc4)[C@H]21)C3(C)C` [docetaxel polymorph of the invention, docetaxel], the solubility entry is “greater solubility than docetaxel trihydrate”.

The values above are taken from patent US20070142457A1, “Crystalline forms of docetaxel and processes for their preparation” (priority 2005, published 2007).
